{"source": "patent US11358977B2", "about": "“Deuterated pyridone amides and prodrugs thereof as modulators of sodium channels” (VERTEX PHARMACEUTICALS INCORPORATED, priority 2017, dated 2022)", "biological_target": "T1, human NaV 1.8 (Homo sapiens, UniProt Q9Y5Y9)", "T1 construct": "expressed in transfected cells; host or cells: HEK cells, grown under blasticidin selection; KIR2.1 BacMam virus added before seeding", "T1 sequence (Q9Y5Y9 whole entry)": "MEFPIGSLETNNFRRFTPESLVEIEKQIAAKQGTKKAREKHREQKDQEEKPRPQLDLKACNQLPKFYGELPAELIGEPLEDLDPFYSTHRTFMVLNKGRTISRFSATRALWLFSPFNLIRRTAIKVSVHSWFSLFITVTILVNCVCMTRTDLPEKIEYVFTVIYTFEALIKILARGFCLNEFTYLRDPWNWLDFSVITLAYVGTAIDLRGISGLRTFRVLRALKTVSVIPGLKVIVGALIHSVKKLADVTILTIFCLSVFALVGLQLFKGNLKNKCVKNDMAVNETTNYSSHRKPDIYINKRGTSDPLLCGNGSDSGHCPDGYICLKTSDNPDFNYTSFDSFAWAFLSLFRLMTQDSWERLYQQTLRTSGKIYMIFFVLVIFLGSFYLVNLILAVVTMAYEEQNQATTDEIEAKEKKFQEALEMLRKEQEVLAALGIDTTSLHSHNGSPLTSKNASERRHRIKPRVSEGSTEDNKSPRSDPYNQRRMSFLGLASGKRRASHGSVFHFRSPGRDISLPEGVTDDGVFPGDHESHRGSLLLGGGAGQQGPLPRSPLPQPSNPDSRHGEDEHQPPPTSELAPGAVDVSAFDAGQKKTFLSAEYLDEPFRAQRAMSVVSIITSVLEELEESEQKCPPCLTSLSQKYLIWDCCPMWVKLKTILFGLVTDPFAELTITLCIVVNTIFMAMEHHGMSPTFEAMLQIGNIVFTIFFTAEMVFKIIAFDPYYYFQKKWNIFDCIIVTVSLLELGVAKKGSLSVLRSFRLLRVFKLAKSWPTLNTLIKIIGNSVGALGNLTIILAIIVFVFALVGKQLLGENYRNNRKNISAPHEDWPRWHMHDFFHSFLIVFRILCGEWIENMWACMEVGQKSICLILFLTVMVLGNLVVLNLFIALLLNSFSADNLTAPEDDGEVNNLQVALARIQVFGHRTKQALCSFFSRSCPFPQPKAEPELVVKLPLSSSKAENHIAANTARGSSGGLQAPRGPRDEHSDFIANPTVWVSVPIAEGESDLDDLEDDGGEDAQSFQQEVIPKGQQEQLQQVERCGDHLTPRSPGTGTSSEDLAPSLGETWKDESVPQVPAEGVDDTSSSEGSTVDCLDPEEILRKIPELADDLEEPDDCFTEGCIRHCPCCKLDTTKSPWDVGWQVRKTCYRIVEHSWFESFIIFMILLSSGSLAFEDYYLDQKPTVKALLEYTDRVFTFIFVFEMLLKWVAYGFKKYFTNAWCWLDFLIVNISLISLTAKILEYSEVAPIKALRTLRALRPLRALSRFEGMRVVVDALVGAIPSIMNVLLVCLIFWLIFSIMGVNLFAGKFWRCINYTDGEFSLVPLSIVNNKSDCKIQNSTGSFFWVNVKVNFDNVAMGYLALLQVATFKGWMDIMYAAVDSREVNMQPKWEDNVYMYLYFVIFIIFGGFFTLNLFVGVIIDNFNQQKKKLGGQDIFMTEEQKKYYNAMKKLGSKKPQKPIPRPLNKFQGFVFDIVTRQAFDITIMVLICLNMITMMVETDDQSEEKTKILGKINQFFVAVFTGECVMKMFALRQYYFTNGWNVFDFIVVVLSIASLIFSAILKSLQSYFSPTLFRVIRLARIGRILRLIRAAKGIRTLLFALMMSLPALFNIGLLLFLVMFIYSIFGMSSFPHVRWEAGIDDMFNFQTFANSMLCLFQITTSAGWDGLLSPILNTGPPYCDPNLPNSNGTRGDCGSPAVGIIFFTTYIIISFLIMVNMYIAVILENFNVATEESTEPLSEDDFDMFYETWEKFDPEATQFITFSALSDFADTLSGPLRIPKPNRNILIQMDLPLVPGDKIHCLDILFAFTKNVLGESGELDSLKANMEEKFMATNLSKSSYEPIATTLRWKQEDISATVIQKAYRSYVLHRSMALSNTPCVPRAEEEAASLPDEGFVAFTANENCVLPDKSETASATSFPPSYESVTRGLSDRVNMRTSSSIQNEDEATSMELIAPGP", "experiment": "E-VIPR assay for NaV inhibition", "type": "cell-based", "conditions": "HEK cells expressing human NaV 1.8, E-VIPR, normalised to positive control 25 μM", "from_the_text": "Sodium ion channels are voltage-dependent proteins that can be activated by inducing membrane voltage changes by applying electric fields. […] The instrument comprises a microtiter plate handler, an optical system for exciting the coumarin dye while simultaneously recording the coumarin and oxonol emissions, a waveform generator, a current- or voltage-controlled amplifier, and parallel electrode pairs that are inserted into assay plate wells. Under integrated computer control, this instrument passes user-programmed electrical stimulus protocols to cells within the wells of the microtiter plate.\nThe solution was made by adding 10% Pluronic F127 stock equal to combined volumes of CC2-DMPE and DiSBAC6(3).\nThen 25 μL per well from compound plate was transferred to each cell plate.\nA pre-stimulus recording was performed for 0.5 seconds to obtain the un-stimulated intensities baseline. The stimulatory waveform was followed by 0.5 seconds of post-stimulation recording to examine the relaxation to the resting state.", "data": [{"molecule": "[2H]C([2H])([2H])c1cc(F)ccc1Oc1cc(C(F)(F)F)ccc1C(=O)Nc1cc[nH]c(=O)c1", "note": "[Compound 7, 2-(4-fluoro-2-(methyl-d3)phenoxy)-N-(2-oxo-1,2-dihydropyridin-4-yl)-4-(trifluoromethyl)benzamide]", "values": [{"measurement": "Nav1.8 Max % Activity", "result": 98, "unit": "%"}]}]}
